Data as given in paper PMC7824081, “Inhibition of DOT1L by Half-Selenopsammaplin A Analogs Suppresses Tumor Growth and EMT-Mediated Metastasis in Triple-Negative Breast Cancer” (Pharmaceuticals, 2020).

Legend:
[1] = system: MCF10A normal breast epithelial cells; experiment: SRB cell proliferation assay, MCF10A; type: cell-based, human; details: 72 h
Protocol: (§1) Human breast epithelial cell line (MCF10A) and human TNBC cell lines (MDA-MB-468, MDA-MB-231, Hs578T, and HCC38 cells) were provided by the American Type Culture Collection (Manassas, VA, USA). MCF10A cells were cultured in Dulbecco’s Modified Eagle’s Medium/Nutrient Mixture F-12 containing 5% donor horse serum, 100 ng/mL cholera toxin, 10 µg/mL human insulin, 20 ng/mL epidermal growth factor, 0.5 µg/mL hydrocortisone, and penicillin-streptomycin (sodium penicillin G: 100 units/mL; streptomycin: 100 μg/mL). The TNBC cells were cultured in medium [Dulbecco’s Modified Eagle’s Medium for MDA-MB-468, MDA-MB-231, and Hs578T cells; Roswell Park Memorial Institute 1640 medium for HCC38 cells] supplemented with penicillin-streptomycin and 10% fetal bovine serum at 37 °C in a humidified incubator with 5% carbon dioxide. MCF10A cells were cultured in DMEM/F12 containing 5% donor horse serum, 100 ng/mL cholera toxin, 10 µg/mL human insulin, 20 ng/mL epidermal growth factor, 0.5 µg/mL hydrocortisone and penicillin-streptomycin. All reagents used for cell culture, including culture medium, fetal bovine serum, trypsin-EDTA solution (1×), and penicillin-streptomycin solution (100×), were purchased from Gibco (Grand Island, NE, USA). Laemmli sample buffer (2×) and 2-mercaptoethanol were purchased from Bio-Rad Laboratories, Inc. (Hercules, CA, USA). EPZ-5676 was purchased from Cayman Chemical (Ann Arbor, MI, USA). Dimethyl sulfoxide (DMSO), bicinchoninic acid, copper (II) sulfate solution, bovine serum albumin (BSA), trichloroacetic acid, sulforhodamine B (SRB), and paclitaxel were purchased from Sigma–Aldrich (St. Louis, MO, USA).
(§2) Cell proliferation was evaluated using the SRB assay. Briefly, cells were seeded in 96-well plates and incubated for 30 min (for 0-day controls) or treated with test compounds for the times indicated. After incubation, the cells were fixed, dried, and stained with 0.4% (w/v) SRB in 1% (v/v) acetic acid solution. Unbound dye was removed by washing, and stained cells were dissolved in 10 mM Tris (pH 10.0). Cell proliferation was then determined by measuring the absorbance at 515 nm.

DOT1L = molecular target: T1, DOT1L (Homo sapiens, UniProt Q8TEK3); experiment: DOT1L enzyme activity assay (cell-free); type: biochemical; details: 500 nM, 2 h, DOT1L 500 ng/well
T1 construct: purchased BPS Bioscience 52202
T1 sequence (Q8TEK3 whole entry): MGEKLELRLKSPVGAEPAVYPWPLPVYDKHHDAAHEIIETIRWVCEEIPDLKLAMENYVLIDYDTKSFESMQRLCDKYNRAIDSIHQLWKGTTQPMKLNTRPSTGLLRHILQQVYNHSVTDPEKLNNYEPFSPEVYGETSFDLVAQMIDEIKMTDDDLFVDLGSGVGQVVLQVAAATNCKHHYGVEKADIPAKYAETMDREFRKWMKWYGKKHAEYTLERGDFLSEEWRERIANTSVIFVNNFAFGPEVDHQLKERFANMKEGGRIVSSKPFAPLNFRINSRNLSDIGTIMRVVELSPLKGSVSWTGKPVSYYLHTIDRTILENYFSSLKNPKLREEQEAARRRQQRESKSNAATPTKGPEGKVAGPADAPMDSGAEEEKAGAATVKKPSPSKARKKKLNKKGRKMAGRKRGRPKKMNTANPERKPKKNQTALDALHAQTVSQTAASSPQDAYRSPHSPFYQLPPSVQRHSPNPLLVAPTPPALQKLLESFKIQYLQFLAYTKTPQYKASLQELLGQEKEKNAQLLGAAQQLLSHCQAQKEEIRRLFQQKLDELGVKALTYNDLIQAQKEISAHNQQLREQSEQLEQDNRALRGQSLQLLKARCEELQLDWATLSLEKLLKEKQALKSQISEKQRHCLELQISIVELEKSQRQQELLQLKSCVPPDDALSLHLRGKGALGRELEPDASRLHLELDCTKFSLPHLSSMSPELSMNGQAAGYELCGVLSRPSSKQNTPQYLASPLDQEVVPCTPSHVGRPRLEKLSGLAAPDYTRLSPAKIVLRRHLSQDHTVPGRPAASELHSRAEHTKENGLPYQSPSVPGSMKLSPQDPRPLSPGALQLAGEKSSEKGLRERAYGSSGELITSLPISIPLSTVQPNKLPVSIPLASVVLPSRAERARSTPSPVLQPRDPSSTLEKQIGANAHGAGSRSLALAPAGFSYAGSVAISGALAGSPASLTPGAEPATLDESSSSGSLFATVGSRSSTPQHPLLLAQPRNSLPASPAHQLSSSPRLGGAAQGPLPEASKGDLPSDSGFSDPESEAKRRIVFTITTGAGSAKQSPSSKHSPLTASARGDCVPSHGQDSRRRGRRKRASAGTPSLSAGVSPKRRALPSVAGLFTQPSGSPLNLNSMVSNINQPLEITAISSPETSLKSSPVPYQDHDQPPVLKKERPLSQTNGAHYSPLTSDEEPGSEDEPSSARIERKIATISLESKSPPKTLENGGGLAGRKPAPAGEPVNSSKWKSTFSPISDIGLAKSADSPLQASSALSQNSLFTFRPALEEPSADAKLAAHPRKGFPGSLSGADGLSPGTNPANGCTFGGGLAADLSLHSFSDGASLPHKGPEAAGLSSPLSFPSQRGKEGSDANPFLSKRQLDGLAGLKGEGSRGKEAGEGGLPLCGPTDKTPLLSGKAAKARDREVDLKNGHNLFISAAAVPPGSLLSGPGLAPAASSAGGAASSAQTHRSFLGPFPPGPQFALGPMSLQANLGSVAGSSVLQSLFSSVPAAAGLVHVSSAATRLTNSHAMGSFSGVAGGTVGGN
Protocol: DOT1L enzyme activity was measured using 5 μM S-adenosyl methionine (SAM) as the methyl group donor, synthesized DOT1L substrate as the substrate, and 25 ng/μL DOT1L enzymes from BPS Bioscience (Cat. No. 52202; San Diego, CA, USA) according to the manufacturer’s instructions.

MDA-MB-231 TNBC cells = experiment: SRB cell proliferation assay, MDA-MB-231; type: cell-based, human; details: for IC50: 72 h, SRB assay; for Therapeutic Index: ratio of IC50 values between MCF10A and MDA-MB-231 cells
Protocol: as §1, §2

[2] = Molecular stability in dichloromethane (TLC analysis); type: physicochemical; details: room temperature, 48 h
Protocol: Figure S1. Thin layer chromatography analysis
Se-S bond analog (Figure 2, compound 9) was dissolved in dichloromethane at room
temperature. After 48 h, thin layer chromatography (TLC) analysis of the compound
9 was performed. (P : Compound 9, C : Co-spot, S : Diphenyl disulfide, SPA :
Compound 5b, eluent: [Hexane:EtOAc = 1:1] ).
(1 picture or pasted object on this page, not shown here)

[3] = system: MDA-MB-231/Luc cells-implanted orthotopic mouse model; experiment: MDA-MB-231/Luc-implanted orthotopic mouse tumor model; type: in vivo; details: 30 mg/kg i.p., three times per week for 38 days
Protocol: All animal experiments were conducted following the guidelines approved by the Seoul National University Institutional Animal Care and Use Committee (IACUC; permission number: SNU-180430-4-1). Female nude mice (BALB/c-nu), 4 weeks old, were purchased from Central Laboratory Animal, Inc. (Seoul, Korea) and housed under pathogen-free conditions with a 12 h light-dark schedule. Luciferase expressing MDA-MB-231 cells were inoculated orthotopically into the fourth fat pad of mice (1 × 10^7 cells in 100 μL of 50:50 PBS/Matrigel) using a 29-gauge needle. Two weeks after implantation, mice were randomized into vehicle control and treatment groups of six animals per group and were administered with vehicle (EtOH/Cremophor/Normal saline = 5:5:90), 9l (10 or 30 mg/kg body weight), EPZ-5676 (30 mg/kg body weight), or paclitaxel (5 mg/kg body weight, Sigma-Aldrich) as a positive reference control. Compounds were administered intraperitoneally three times per week for 38 days. An additional week later, anesthetized mice were positioned in IVIS (PerkinElmer, Waltham, MA, USA) and were imaged 15 min after injection of 150 mg/kg D-luciferin (Gold Biotechnology, St. Louis, MO, USA) resuspended in DPBS (w/o calcium or magnesium). Mice were euthanized and primary tumors and lungs were excised, weighed, and frozen for further biochemical analysis. The length (L), width (W), and height (H) of the tumors were also measured using a digital slide caliper (Mitutoyo, Kawasaki, Japan) once a week, and tumor volumes (mm^3) were estimated by the formula LWH/2. Toxicity was evaluated based on body weight loss.
A portion of the frozen tumors excised from nude mice on the termination day of the experiment was homogenized using a hand-held homogenizer in complete lysis buffer (Active Motif, Carlsbad, CA, USA). Aliquots were stored at −80 °C, and the levels of protein expression in the tumor lysates were determined. The protein concentrations in the tumor lysates were measured using the Bradford assay.

Compound	IC50 ([1]; Homo sapiens, MCF-10A) [nM]	IC50 (MDA-MB-231 TNBC cells; Homo sapiens, MDA-MB-231) [nM]	Therapeutic Index (MDA-MB-231 TNBC cells)	also measured
O=C(NCC[Se]Sc1ccccc1)/C(Cc1ccccc1)=N/O [9b, (E)-2-(Hydroxyimino)-3-phenyl-N-(2-((phenylthio)selanyl)ethyl)propanamide]	21500	250	86.08	Inhibition of DOT1L enzyme activity (DOT1L): significant inhibitory effects
O=C(NCCSSCCNC(=O)/C(Cc1ccc(O)c(Br)c1)=N/O)/C(Cc1ccc(O)c(Br)c1)=N/O [Psammaplin A (PsA), Psammaplin A]	32700	2820	11.60	Inhibition of DOT1L enzyme activity (DOT1L): negligible DOT1L inhibition
CC(=O)O[C@H]1C(=O)[C@@]2(C)[C@H]([C@H](OC(=O)c3ccccc3)[C@]3(O)C[C@H](OC(=O)[C@H](O)[C@@H](NC(=O)c4ccccc4)c4ccccc4)C(C)=C1C3(C)C)[C@]1(OC(C)=O)CO[C@@H]1C[C@@H]2O [Paclitaxel, reference compound]	198	10	19.80	
O=C(NCC[Se]Sc1ccccc1)/C(Cc1ccccc1)=N/O [compound 9]				molecular stability [2]: stable
O=C(NCC[Se]Sc1ccccc1)/C(Cc1ccc(Br)cc1)=N/O [9h, (E)-3-(4-Bromophenyl)-2-(hydroxyimino)-N-(2-((phenylthio)selanyl)ethyl)propanamide]	29100	400	72.85	
O=C(NCC[Se]Sc1ccccc1)/C(Cc1ccc(O)c(F)c1)=N/O [9n, (E)-3-(3-Fluoro-4-hydroxyphenyl)-2-(hydroxyimino)-N-(2-((phenylthio)selanyl)ethyl)propanamide]	18500	230	80.48	
O=C(NCC[Se]Sc1ccccc1)/C(Cc1ccc(F)c(F)c1)=N/O [9e, (E)-3-(3,4-Difluorophenyl)-2-(hydroxyimino)-N-(2-((phenylthio)selanyl)ethyl)propanamide]	23300	430	54.23	
O=C(NCC[Se]Sc1ccccc1)/C(Cc1ccc(F)cc1)=N/O [9d, (E)-3-(4-Fluorophenyl)-2-(hydroxyimino)-N-(2-((phenylthio)selanyl)ethyl)propanamide]	26000	390	66.77	
CCOc1ccc(C/C(=N\O)C(=O)NCC[Se]Sc2ccccc2)cc1 [9i, (E)-3-(4-Ethoxyphenyl)-2-(hydroxyimino)-N-(2-((phenylthio)selanyl)ethyl)propanamide]	21000	170	123.65	
O=C(NCC[Se]Sc1ccccc1)/C(Cc1ccc(O)c(Br)c1)=N/O [9a, (E)-3-(3-Bromo-4-hydroxyphenyl)-2-(hydroxyimino)-N-(2-((phenylthio)selanyl)ethyl)propanamide]	17200	210	82.10	Inhibition of DOT1L enzyme activity (DOT1L): significant inhibitory effects
CC(C)N(C[C@H]1O[C@@H](n2cnc3c(N)ncnc32)[C@H](O)[C@@H]1O)[C@H]1C[C@@H](CCc2nc3cc(C(C)(C)C)ccc3[nH]2)C1 [EPZ-5676, reference compound]	> 50000	> 50000		effect on tumor growth [3]: did not affect tumor growth; inhibition of proliferation of TNBC cells (MDA-MB-231 TNBC cells; at 50 μM): not able to inhibit the proliferation
O=C(NCC[Se]Sc1ccccc1)/C(Cc1ccc(O)c(Cl)c1)=N/O [9m, (E)-3-(3-Chloro-4-hydroxyphenyl)-2-(hydroxyimino)-N-(2-((phenylthio)selanyl)ethyl)propanamide]	17000	250	68.08	
O=C(NCC[Se]Sc1ccccc1)/C(Cc1ccc([N+](=O)[O-])cc1)=N/O [9k, (E)-2-(Hydroxyimino)-3-(4-nitrophenyl)-N-(2-((phenylthio)selanyl)ethyl)propanamide]	18200	190	95.53	
CC(C)(C)c1ccc(CC(=NO)C(=O)NCCSSc2ccccc2)cc1 [PsA-3091, reference compound]			68.99	IC50 [1]: 137000 nM; IC50 (MDA-MB-231 TNBC cells): 1980 nM
O=C(NCC[Se]Sc1ccccc1)/C(Cc1ccc2ccccc2c1)=N/O [9c, (E)-2-(Hydroxyimino)-3-(naphthalen-2-yl)-N-(2-((phenylthio)selanyl)ethyl)propanamide]	28200	460	61.30	
O=C(NCC[Se]Sc1ccccc1)/C(Cc1ccc(OCc2ccccc2)cc1)=N/O [9j, (E)-3-(4-(Benzyloxy)phenyl)-2-(hydroxyimino)-N-(2-((phenylthio)selanyl)ethyl)propanamide]	19500	180	108.22	
O=C(NCC[Se]Sc1ccccc1)/C(Cc1ccc(Cl)c(Cl)c1)=N/O [9g, (E)-3-(3,4-Dichlorophenyl)-2-(hydroxyimino)-N-(2-((phenylthio)selanyl)ethyl)propanamide]	22700	330	68.67	
O=C(NCC[Se]Sc1ccccc1)/C(Cc1ccc(Cl)cc1)=N/O [9f, (E)-3-(4-Chlorophenyl)-2-(hydroxyimino)-N-(2-((phenylthio)selanyl)ethyl)propanamide]	27100	470	57.60	
